US10092620B2, “Uses of cyclic peptides for treating and preventing atherosclerosis” (THE SCRIPPS RESEARCH INSTITUTE, priority 2013, dated 2018)
Non-standard residues stand in square brackets, D forms with d. Residues, ends and D or L forms follow the SMILES beside them. dNMeW = CN[C@H](Cc1c[nH]c2ccccc12)C(=O)O; 2Nal = N[C@@H](Cc1ccc2ccccc2c1)C(=O)O; dNMeS = CN[C@H](CO)C(=O)O; Orn = NCCC[C@H](N)C(=O)O; Dap = NC[C@H](N)C(=O)O

How the values were obtained:
[1] = system: human plasma HDL; assay: human plasma HDL remodeling (NDGGE, immunoblot for human apoA-I); format: biochemical; conditions: human plasma in vitro; Western blot for apoA-I; FIGS. 1 and 2a
From the text: As an initial phase of investigation, we evaluated in vitro the effectiveness of our cyclic D,L-α-peptides to remodel mature human plasma HDLs into lipid-poor HDL (FIG. 1 and FIG. 2a). Lipid-poor HDL particles are key acceptors of cholesterol in reverse cholesterol transport and are thus crucial for combating atherosclerosis. In fact, with respect to the cholesterol efflux capacity of human sera, the levels of lipid-poor HDL correlate much better than the levels of HDL-cholesterol or apoA-I. Briefly, our assay involved incubating human plasma with a peptide, after which the plasma sample was subjected to non-denaturing gradient gel electrophoresis (NDGGE) to separate the HDL subspecies and then immunoblotted for human apoA-I. The ranked activities of the cyclic D,L-α-peptides in promoting formation of lipid-poor HDL are shown in FIG. 1. It should be noted that there are inherent variabilities associated with electrophoretic transfer, staining, and densitometric quantitation, so the peptide ranking should be viewed as an approximate guide to relative plasma HDL remodeling efficacy. Nevertheless, the rankings were similar overall whether the panel was assayed by using peptide stock solutions prepared in 10% sucrose/H2O (FIGS. 1 and 2a) or peptide stock solutions prepared in 1:1 DMSO/H2O. From these preliminary structure-activity relationship (SAR) studies, we identified a pronounced sequence dependence for efficient plasma HDL remodeling (vide infra).
Human plasma remodeling: All procedures involving human samples were approved by TSRI Institutional Review Board. Procedures were modified from those reported in Troutt et al., J. Lipid Res. 49, 581-587, 2008. Blood samples from normal healthy human donors were obtained from TSRI Normal Blood Donor Program. EDTA-anticoagulated whole blood was centrifuged at 1500×g for 15 min within 1 h of being drawn from the donor. The plasma layer was aliquoted and used immediately or frozen at −80° C. for future use. Peptide stock solutions were prepared at ˜15 mM peptide in 50% DMSO for initial screenings, or at ˜2 mM peptide in 10% sucrose for remodeling assays at lower concentrations (FIG. 1) and cholesterol efflux assays (FIG. 2). Plasma samples (30 μL) were treated with peptide stocks, and the samples were incubated at 37° C. for 0.5-1 h, and then quenched by adding 270 μL of 50% sucrose (1:9 dilution). Samples were mixed with 6× native loading buffer (125 mM tris, pH 6.8, 0.02% bromophenol, 20% glycerol), of which 6 μL was loaded onto a 4-20% polyacrylamide gel. The molecular weight ladder used was High Molecular Weight Calibration Kit (Amersham Biosciences, #17-0445-01). […] The films were scanned and quantified by densitometry using the program LabWorks (v. 4.0.0.8). […]

[2] = system: mouse macrophage J774 cells; assay: cholesterol efflux from mouse macrophage cells incubated with peptide-treated human plasma; format: cell-based; conditions: for promotion of cellular cholesterol efflux (in words): J774 cells, 2% apoB-depleted peptide-treated human plasma, 4 h, FIG. 2b
Procedure: Selected cyclic D,L-α-peptides were further evaluated for their ability to promote cellular cholesterol efflux from mouse macrophage J774 cells. A main factor for HDL anti-atherogenicity is its role in reverse cholesterol transport, of which cellular cholesterol efflux is a critical component. To measure efflux mediated by the cyclic D,L-α-peptides, cholesterol-laden cells were incubated with peptide-treated plasma for 4 h, after which the level of cholesterol effluxed to the media was measured as described in Sankaranarayanan et al., J. Lipid Res. 52, 2332-2340, 2011.
Preparation of labeling medium: These procedures were modified from that reported in Sankaranarayanan et al., J. Lipid Res. 52, 2332-2340, 2011. The labeling medium was prepared by complexing the unlabeled cholesterol and BODIPY-cholesterol (20% of the total cholesterol) with methyl-β-cyclodextrin (CD) at a molar ratio of 1:40 (total cholesterol/CD). Unlabeled cholesterol and BODIPY-cholesterol were dissolved in chloroform and dried in a round bottom flask by rotor-evaporation in the dark to form a thin film. The cholesterol mixture was solubilized by adding 20 mM CD in MEM-HEPES buffer. The suspension was sonicated in a water bath (37° C.) for at 1 h, stirred at 37° C. for 3 h, filtered using a 0.45-μm syringe filter, and diluted with an equal volume of MEM-HEPES buffer containing 4 μg/mL Sandoz ACAT (acyl-CoA:cholesterol acyltransferase) inhibitor (Sigma). The final concentrations of BODIPY-cholesterol, unlabeled cholesterol, CD, and ACAT inhibitor in the labeling medium were 0.025 mM, 0.1 mM, 10 mM, and […], respectively.
Preparation of efflux medium: Just before the initiation of the efflux assays, the human plasma frozen at −80° C. was thawed, and 80 μL of plasma was incubated with 20 μL of cyclic peptide stocks (peptide stocks were 1-3 mg/mL in 10% sucrose) or the vehicle (10% sucrose) at 37° C. for 30 min. The treated plasma samples (100 μL) were then incubated with 25% PEG 8000 solution in 200 mM glycine buffer, pH 8.5 (40 μL) to precipitate apoB-containing lipoproteins (Asztalos et al., J. Lipid Res. 46, 2246-2253, 2005). After a 15-min incubation, the precipitate was removed by high-speed centrifugation (13,000 rpm, 10 min, 4° C.), and the supernatant (60 μL) was immediately diluted with MEM-HEPES buffer (1.5 mL) to give ˜2% whole plasma. This solution, containing the peptide remodeled-HDL lipoprotein fraction as cholesterol acceptors, was used as the efflux medium.
Cholesterol efflux from mouse macrophage cells: Mouse macrophage J774A.1 cells (TIB-67; American Type Culture Collection, Manassas, Va.) were seeded in 12-well culture plate at 3×10^5 cells/mL and cultured to 80-90% confluency in DMEM with 10% FBS at 5% CO2. Cells were rinsed twice with MEM-HEPES, incubated for 1 h with 0.25 ml of labeling medium containing CD/BODIPY-cholesterol/unlabeled cholesterol and 2 μg/mL Sandoz ACAT inhibitor, followed by washing twice with MEM-HEPES. The cholesterol-laden cells were equilibrated for 18 h in DMEM containing 5% LPDS, […] Sandoz ACAT inhibitor, and 0.3 mM Cpt-cAMP. After equilibration, the cells were washed twice with MEM-HEPES and incubated with 0.25 mL of efflux media for 4 h. At the end of the incubation time, the efflux media was removed and centrifuged (1200 rpm, 10 min) to remove floating cells, and the fluorescence intensity of 100 μL cell-free media was recorded using a Tecan GENios plate reader (excitation 485 nm, emission 535 nm). The obtained signals were background subtracted using the signal from unlabeled cells. The cell monolayers were rinsed twice with ice-cold MEM-HEPES and solubilized with 0.25 mL 1% cholic acid by shaking on a plate shaker for at least 4 h at room temperature; then the fluorescence intensity of 100 μL cell lysate was recorded and background subtracted using the signal from unlabeled cell lysate. […]

[3] = system: HDL in human plasma; assay: pre-beta HDL ELISA assay: remodeling HDL in human plasma in vitro; format: biochemical; conditions: pre-beta HDL ELISA
Procedure: First, various cyclic peptides, including the majority of compounds shown in FIG. 2, were assessed for activities for remodeling HDL in human plasma in vitro. Unlike western blot which was used to generate data shown in FIG. 2, here a pre-beta HDL ELISA assay was used to measure pre-beta HDL levels. Results from the assay are shown in Table 1, which lists the peptides in the order of their activities in remodeling HDL.

Row | Compound | plasma HDL remodeling to lipid-poor HDL (in words) [1] | promotion of cellular cholesterol efflux (in words) [2] | Pre-beta HDL generated (normalized level) [3] | toxicity based on the cellular morphology and density ([2]; J774 cells in the efflux assay)
1 | c[wLwErQrE] (cyclo([dW]L[dW]E[dR]Q[dR]E); SMILES CC(C)C[C@@H]1NC(=O)[C@@H](Cc2c[nH]c3ccccc23)NC(=O)[C@H](CCC(=O)O)NC(=O)[C@@H](CCCNC(=N)N)NC(=O)[C@H](CCC(N)=O)NC(=O)[C@@H](CCCNC(=N)N)NC(=O)[C@H](CCC(=O)O)NC(=O)[C@@H](Cc2c[nH]c3ccccc23)NC1=O) [SEQ ID NO:37] | dramatically reduced compared to that of compound 1 | dramatically reduced compared to that of compound 1 | – | –
2 | c[wL^MewSeQ^MesO] (cyclo([dW]L[dNMeW]S[dE]Q[dNMeS][Orn])) [SEQ ID NO:14] | greatly diminished compared to the unmethylated parent, compound 4 | greatly diminished compared to the unmethylated parent, compound 4 | – | –
3 | Ac-wLwSeQsO-NH2 (Ac-[dW]L[dW]S[dE]Q[dS][Orn]-NH2) [SEQ ID NO:45, acetylated linear peptide] | failed to remodel plasma HDL | failed to remodel plasma HDL or promote cholesterol efflux | – | –
4 | CC(C)C[C@@H]1NC(=O)[C@@H](Cc2c[nH]c3ccccc23)NC(=O)[C@H](CCCN)NC(=O)[C@@H](CO)NC(=O)[C@H](CCC(N)=O)NC(=O)[C@@H](CCC(=O)O)NC(=O)[C@H](CO)NC(=O)[C@@H](Cc2c[nH]c3ccccc23)NC1=O [SEQ ID NO:4, c[wLwSeQsO]] (cyclo([dW]L[dW]S[dE]Q[dS][Orn])) | – | only marginally less effective than the α-helical apoA-I mimetic 4F | 0.59 | did not appear to be toxic
5 | 19 (cyclo([dW]L[dW][Orn][dE]N[dE][Orn]); SMILES CC(C)C[C@@H]1NC(=O)[C@@H](Cc2c[nH]c3ccccc23)NC(=O)[C@H](CCCN)NC(=O)[C@@H](CCC(=O)O)NC(=O)[C@H](CC(N)=O)NC(=O)[C@@H](CCC(=O)O)NC(=O)[C@H](CCCN)NC(=O)[C@@H](Cc2c[nH]c3ccccc23)NC1=O) [compound 19] | – | – | 0.36 | –
6 | 60 (cyclo([dW][2Nal][dK]S[dK]S[dK]S); ring closure inferred) [compound 60] | – | – | 0.20 | –
7 | 75 (cyclo([dW]L[dW][Dap][dE]Q[dE]K); ring closure inferred) [compound 75] | – | – | 0.03 | –
